US20190192510A1, “GPR119 AGONIST” (NIPPON CHEMIPHAR CO., LTD., priority 2010, published 2019)
pEC50: −log10 of the molar value. Where two headings read alike, the source gives them in different places.

Target: T1, human GPR119 (Homo sapiens, UniProt Q8TDV5)
T1 sequence (Q8TDV5 1-335): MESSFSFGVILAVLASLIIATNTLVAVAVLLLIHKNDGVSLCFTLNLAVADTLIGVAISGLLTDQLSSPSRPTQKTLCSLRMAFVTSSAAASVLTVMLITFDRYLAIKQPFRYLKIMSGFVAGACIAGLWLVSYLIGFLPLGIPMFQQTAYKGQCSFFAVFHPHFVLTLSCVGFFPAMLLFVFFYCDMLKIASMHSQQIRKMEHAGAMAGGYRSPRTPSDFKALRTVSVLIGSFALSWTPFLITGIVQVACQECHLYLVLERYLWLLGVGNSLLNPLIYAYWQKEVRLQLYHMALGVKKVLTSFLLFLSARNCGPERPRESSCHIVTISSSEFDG
Assay: Intracellular cAMP increase in human GPR119 introduced cells (Pharmacological Experiments 1 and 2)
Assay type: cell-based
Details: for GPR119 agonist effect: result in words, refers to Tables 12 and 13
From the text: The GPR119 agonist effect is studied by measuring the effect of an analyte on increase of intracellular amount of cAMP in human GPR119 introduced cells. The testing method is described below.
Human GPR119 gene (NM 178471) is purchased from ATCC (ATCC No. 10807349), and is amplyfied according to PCR to form BamHI site at 5′ side and Apa I site at 3′ side. The forward side primer is […] (sequence No. 1), and the reverse side primer is […] (sequence No. 2). The PCR conditions are described below.
(§1) The double-stranded DNA is thermally denatured using a DNA polymerase (KOD-Plus-Ver. 2; TOYOBO #KOD-211) at 98° C. for 10 seconds in one cycle. The denatured single-stranded DNA is annealed with the primers at 55° C. for 30 seconds. The DNA is subjected to an extension reaction at 68° C. for 1 minute and 15 seconds. The above-mentioned steps are repeated in 35 cycles. The PCR product is inserted into pcDNA5/FRT/TO (Invitrogen #V6520-20) plasmid. Flp-in T-Rex-293 cells (Invitorogen #R78007) are transfected with the obtained plasmid. The method of transfection is conducted in accordance with the protocol of the product.
The stable cell line expressing human GPR119 prepared in the above-mentioned method is plated on a 96-well plate at the concentration of 2,500 cells/well using Dulbecco's Modified Eagle Medium (DMEM) containing 10% fetal bovine serum (FBS). Twenty-four hours after plating, tetracyclin (Invitrogen #Q10019) is added at the final concentration of 20 ng/mL to induce hGPR119 gene expression. Twenty-four hours after, the medium is removed, and the cells are stimulated with an assay buffer (0.5 mM IBMX PBS(−)) containing the test compound at 37° C. for 30 minutes. The amount of the intracellular cAMP is measured using a commercially available kit (HitHunter™ cAMP XS+ Assay: GE Healthcare #90007503) and a reader (FLUOstar Optima: BMG LABTECH). The test compound is dissolved in 100% DMSO, and added at the final concentration of 1%.
Human GPR119 gene (NM 178471) was purchased from ATCC (ATCC No. 10807349), and is amplyfied according to PCR to form BamHI site at 5′ side and Apa I site at 3′ side. The primers were […] (sequence No. 1) and […] (sequence No. 2). The PCR conditions are described below.
as §1, with “was” for “is”, “were” for “are”
The stable cell line expressing human GPR119 prepared in the above-mentioned method was plated on a 96-well plate at the concentration of 2,500 cells/well using Dulbecco's Modified Eagle Medium (DMEM) containing 10% fetal bovine serum (FBS). Twenty-four hours after plating, tetracyclin (Invitrogen #Q10019) was added at the final concentration of 20 ng/mL to induce hGPR119 gene expression. Twenty-four hours after, the medium was removed, and the cells were stimulated with an assay buffer (0.5 mM IBMX PBS (−)) containing the test compound at 37° C. for 30 minutes. The amount of the intracellular cAMP was measured using a commercially available kit (HitHunter™ cAMP XS+ Assay: GE Healthcare #90007503) and a reader (FLUOstar Optima: BMG LABTECH). The test compound was dissolved in 100% DMSO, and added at the final concentration of 1%.
The examination was performed by the method similar to Example 61 Pharmacological experiment 1-(1), 1-(2).

[1] = Table 12, Flp-in T-Rex-293 cells stably expressing hGPR119, intracellular cAMP, 37° C. for 30 minutes, read-out: EC50
[2] = Table 13, Pharmacological experiment 2, method similar to Example 61, read-out: EC50

SMILES | pEC50 | other results
CC(C)(C)OC(=O)N1CCC(c2cnc(Cn3ccc4cc(S(C)(=O)=O)ccc43)nc2)CC1 [Example 4, tert-Butyl 4-[2-(5-methanesulfonylindol-1-ylmethyl)pyrimidin-5-yl]piperidine-1-carboxylate] | 7.20 | –
CC1CN(C(=O)OC(C)(C)C)CC=C1c1cnc(COc2ccc(S(C)(=O)=O)c(F)c2F)nc1 (stereo not shown) [Example 24, tert-Butyl 4-[2-(2,3-difluoro-4-methanesulfonylphenoxymethyl)pyrimidin-5-yl]-3-methyl-3,6-dihydro-2H-pyridine-1-carboxylate] | – | pEC50 [1]: 6.95
CC1CN(C(=O)OC(C)(C)C)CC=C1c1cnc(COc2ccc(-n3cncn3)cc2)cn1 (stereo not shown) [Example 17, tert-Butyl 3-methyl-4-[5-[4-(1,2,4-triazol-1-yl)phenoxymethyl]pyrazin-2-yl]-3,6-dihydro-2H-pyridine-1-carboxylate] | – | pEC50 [1]: 6.91
CC(C)OC(=O)N1CC=C(c2cnc(Cn3ccc4cc(S(C)(=O)=O)c(F)c(F)c43)cn2)C(C)C1 (stereo not shown) [Example 29, Isopropyl 4-[5-(6,7-difluoro-5-methanesulfonylindol-1-ylmethyl)pyrazin-2-yl]-3-methyl-3,6-dihydro-2H-pyridine-1-carboxylate] | 7.45 | –
CC(C)OC(=O)N1CCC(c2cnc(Cn3ccc4cc(-n5cnnn5)cc(F)c43)cn2)CC1 [Example 38, Isopropyl 4-[5-[7-fluoro-5-(tetrazol-1-yl)indol-1-ylmethyl]pyrazin-2-yl]piperidine-1-carboxylate] | 7.78 | –
CC(C)(C)OC(=O)N1CC=C(c2cnc(Cn3ccc4cc(S(C)(=O)=O)c(F)c(F)c43)cn2)CC1 [Example 20, tert-Butyl 4-[5-(6,7-difluoro-5-methanesulfonylindol-1-ylmethyl)pyrazin-2-yl]-3,6-dihydro-2H-pyridine-1-carboxylate] | 7.66 | GPR119 agonist effect: excellent GPR119 agonist effect
Fc1cc(-n2cnnn2)cc2ccn(Cc3cnc(C4CCN(c5ncc(Br)cn5)CC4)cn3)c12 [Example 54, 5-Bromo-2-[4-[5-[7-fluoro-5-(tetrazol-1-yl)indol-1-ylmethyl]pyrazin-2-yl]piperidin-1-yl]pyrimidine] | – | pEC50 [2]: 7.85
CC(C)OC(=O)N1CCC(c2cnc(Cn3ccc4cc(-n5cnnn5)cc(F)c43)nc2)CC1 [Example 50, Isopropyl 4-[2-[7-fluoro-5-(tetrazol-1-yl)indol-1-ylmethyl]pyrimidin-5-yl]piperidine-1-carboxylate] | 7.76 | –
CC(C)(C)OC(=O)N1C2C=C(c3cnc(COc4ccc(S(C)(=O)=O)cc4)cn3)CC1CC2 (stereo not shown) [Example 10, tert-Butyl 3-[5-(4-methanesulfonylphenoxymethyl)pyrazin-2-yl]-8-azabicyclo[3.2.1]oct-2-ene-8-carboxylate] | 7.00 | –
CC(C)(C)OC(=O)N1CC=C(c2cnc(COc3ccc(-n4cnnn4)cc3F)cn2)CC1 [Example 12, tert-Butyl 4-[5-[2-fluoro-4-(tetrazol-1-yl)phenoxymethyl]pyrazin-2-yl]-3,6-dihydro-2H-pyridine-1-carboxylate] | 7.25 | –
CC(C)(C)OC(=O)N1CCC(c2cnc(Cn3ccc4cc(-n5cnnn5)cc(F)c43)cn2)CC1 [Example 34, tert-Butyl 4-[5-[7-fluoro-5-(tetrazol-1-yl)indol-1-ylmethyl]pyrazin-2-yl]piperidine-1-carboxylate] | 8.54 | GPR119 agonist effect: excellent GPR119 agonist effect
CC(C)OC(=O)N1CC=C(c2cnc(Cn3ccc4c(F)c(S(C)(=O)=O)c(F)cc43)cn2)C(C)C1 (stereo not shown) [Example 30, Isopropyl 4-[5-(4,6-difluoro-5-methanesulfonylindol-1-ylmethyl)pyrazin-2-yl]-3-methyl-3,6-dihydro-2H-pyridine-1-carboxylate] | – | pEC50 [2]: 6.86
CC1CN(C(=O)OC(C)(C)C)CC=C1c1cnc(Cn2ccc3cc(S(C)(=O)=O)c(F)c(F)c32)cn1 (stereo not shown) [Example 21, tert-Butyl 4-[5-(6,7-difluoro-5-methanesulfonylindol-1-ylmethyl)pyrazin-2-yl]-3-methyl-3,6-dihydro-2H-pyridine-1-carboxylate] | 7.67 | GPR119 agonist effect: excellent GPR119 agonist effect
